One test addresses T1, RNase (Bos taurus, UniProt P61823).
T1 sequence (P61823 27-150): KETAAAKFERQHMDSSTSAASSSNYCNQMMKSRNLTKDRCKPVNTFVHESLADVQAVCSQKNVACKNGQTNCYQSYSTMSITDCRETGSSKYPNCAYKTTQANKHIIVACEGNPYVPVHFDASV
The test can be described thus: Isothermal Titration Calorimetry (ITC) binding to RNase. The text has this: Table 2, below, provides the chemical structure of each of the three CMP ligands used in this experiment and a comparison of their dissociation constants (KD) binding to RNase as determined by Isothermal Titration Calorimetry (ITC) and Multipole Coupling Spectroscopy (MCS).
(In general: In ITC the heat of successive injections is recorded.)

The target of the next test is T2, Ribonuclease A (RNase A) (Bos taurus, UniProt P61823).
T2 construct: purchased Sigma (St. Louis, Mo.) R5503
T2 sequence (P61823 27-150): T1 sequence (P61823 27-150)
The test can be described thus: Multipole Coupling Spectroscopy (MCS) binding titration of CMP ligands with RNase A. The following applies: for binding strength to RNase A in words: summary of ITC and MCS results. From the text:
Given the equation εtot=α+βL0+γg(A0,L0,KD), it can be seen that εtot is a function of L0 and KD (F(L0,KD)). εtot is a measured value and L0 is known. If KD is fixed, εtot can be predicted from L0. Then, KD can be adjusted until the predicted and measured values of εtot are as close as possible according to a nonlinear least squares analysis defined as follows: {(^1L0,^1εtot)|i=1, 2, . . . n} measurements find KD such that • Σ[^1εtot−F(^iLO,KD)]^2 is a minimum.
This formula defines the objective function for this nonlinear least squares problem. The problem is called a least squares problem because the objective function is the sum of the squares of the residuals (differences) between the measurements and the model predictions. The solution is the value of KD that minimizes the objective function. FIG. 7 depicts a plot showing an example of this objective function. There are many ways to minimize the objective function. Any standard function optimization algorithm, such as the steepest descent algorithm, can be used. Some objective function minimization methods take advantage of the particular structure of this objective function, for example the conjugate gradient method and the Levenberg-Marquardt method, and their use may be preferred in many instances. In this way, the strength of the ligand/antiligand bond can be quantified.
Materials. Ribonuclease A, (RNase A, catalogue # R5503)), cytidine 2′-monophosphate free acid (2′-CMP, catalogue # C7137), cytidine 3′-monophosphate free acid (3′-CMP, catalogue # C1133), cytidine 5′-monophosphate free acid (5′-CMP, catalogue # C1131), sodium chloride (catalogue # S7653), magnesium chloride (catalogue # M2670), Bis-Tris free base (catalogue # B7535), and Bis-Tris hydrochloride salt (catalogue # B6032) were purchased from Sigma (St. Louis, Mo.). The surfactant NP-40 (catalogue # 492015) was purchased from Calbiochem (San Diego, Calif.). These reagents were used without further purification. All solutions were prepared using milliQ water. These experiments were performed in a pH 6.0 150 mM BIS-TRIS buffer containing 10 mM sodium chloride, 10 mM magnesium chloride, and 0.005% v/v NP-40. Preparation of Sample Solutions. The protein solution was prepared by dissolving RNase A in the Bis-Tris buffer to give a final concentration of 1 mM protein; no subsequent dialysis was performed. The ligand solutions were prepared by dissolving 2′-CMP, 3′-CMP or 5′-CMP in the 1 mM RNase A solution to give a final concentration of 4 mM ligand. A series of samples which formed the basis of the ligand binding curve were prepared by mixing various ratios of the above two solutions as outlined in Table 1. Multipole Coupling Spectroscopy (MCS). […] The flow cell (a polyimide tube with an 0.0285″ I.D. and an 0.0305″ O.D. from HV Technologies, Trenton, Ga.) was mounted on the top of the coaxial resonating detector such that only the wall of the tubing separated the detector and the fluidic sample. The AFM was used to draw the fluidic samples into the detection region of the flow cell. The network analyzer settings used were S11 reflection, log magnitude, linear frequency sweep in stepped mode, 401 points, IF bandwidth of 30 Hz, power of −5 dBm, and no cable calibration was applied.
To set up the instrument to measure the data of a binding titration, the protein solution was first introduced to the flow cell of the coaxial resonating fixture and the fixture was coupled by adjusting the size of the gap until the desired reflection was achieved (approximately −30 dBm). The co-axial resonator has a sliding mechanism composed of a single dimension translation stage and a mechanical motor (Picomotor Driver from New Focus Inc., San Jose, Calif.) to adjust the gap size separating the pieces of coax such that the desired MCS reflection is achieved. Each of the remaining fluidic samples described in Table 1, below, were sequentially measured. […]

The next test addresses T3, RNase A (Bos taurus, UniProt P61823).
T3 construct: purchased Sigma
T3 sequence (P61823 27-150): T1 sequence (P61823 27-150)
The test can be described thus: Refractive index binding titration of 2′CMP with RNase A. The following applies: 1 mM RNase; 150 mM Bis-Tris buffer pH 6; 2′CMP up to 4 mM. The protocol:
As verification of the generality of the inventive technique in bulk property situations other than the measurements involving permittivity, an experiment was carried out by measuring refractive index as the bulk property of a test solution. The binding assay used was one of the ones shown in Example 1, namely binding of RNase A to the RNase inhibitor 2′CMP. The refractometer used to measure the refractive index of the samples was a Wyatt Technologies Optilab DSP refractometer, calibrated using sodium chloride solutions as described in the manufacturer's instructions. RNase (Sigma) was dissolved in a buffer containing 150 mM Bis-Tris, 10 mM NaCl, 10 mM MgCl2, 0.005% […], pH 6, to provide 1 mM RNase. A portion of this solution was fed into the reference cell of the refractometer, and the instrument was left standing until the readout had stabilized. The test ligand, 2′CMP, was dissolved to 4 mM in a portion of the 1 mM RNase solution, and a titration was prepared to produce the following concentrations.
Samples were then loaded into the Optilab sample cell using a syringe and measured in the following order: […]
The refractometer was zeroed using a 1 mM RNase solution. […] The refractive index change relative to the reference cell was calculated using the software and plotted against the concentration of 2′CMP.

The mark [1] stands for this setting: 27° C., 1 mM RNase A, pH 6.0 Bis-Tris buffer, vs ligand-to-protein ratio.
[2] abbreviates: 27° C., 1 mM RNase A, pH 6.0 Bis-Tris buffer, 1.3 GHz, vs ligand concentration, read-out: KD from fit of absolute permittivity values (e′ real part of permittivity), FIG. 11A.
The mark [3] stands for this setting: 27° C., 1 mM RNase A, pH 6.0 Bis-Tris buffer, vs ligand-to-protein ratio, read-out: KD from fit of change in impedance (Zi, imaginary part of impedance), FIG. 11E.
Where [4] appears, read: 27° C., 1 mM RNase A, pH 6.0 Bis-Tris buffer, vs ligand-to-protein ratio, read-out: MCS KD from fit of change in permittivity (e′ real part of permittivity), FIG. 11C.

pKd: −log10 of the molar value. Entries after “also recorded” stand apart in the source; their conditions may differ. Where two headings read alike, the source gives them in different places.

For the molecule `Nc1ccn([C@@H]2O[C@H](COP(=O)(O)O)[C@@H](O)[C@H]2O)c(=O)n1` [5′-CMP, cytidine 5′-monophosphate free acid], the “ITC KD” value at RNase is listed as “non-binding”. In addition, the “KD from fit of absolute permittivity values (e′ real part of permittivity), FIG. 11A” value on Ribonuclease A (RNase A) (27° C., 1 mM RNase A, pH 6.0 Bis-Tris buffer, 1.3 GHz, vs ligand concentration) was “No suitable curve fit was achieved”. Also, at Ribonuclease A (RNase A) (setting [1]), the “KD from fit of change in impedance (Zi, imaginary part of impedance), FIG. 11E” value is “No suitable curve fit was achieved” and the “MCS KD from fit of change in permittivity (e′ real part of permittivity), FIG. 11C” value is reported as “No suitable curve fit was achieved; also recorded: non-binding”. At Ribonuclease A (RNase A), the “binding strength to RNase A in words” value is reported as “unmeasurably weak”.

Consider `Nc1ccn([C@@H]2O[C@H](CO)[C@@H](O)[C@H]2OP(=O)(O)O)c(=O)n1` [2′-CMP, cytidine 2′-monophosphate free acid], for which the “refractive index change vs concentration plot (FIG. 12), binding detection” value at RNase A is on record as “deviates significantly from linearity, indicating that binding has taken place”. In addition, the pKd at RNase was 5.20; at Ribonuclease A (RNase A) (setting [2]), 5.00; on Ribonuclease A (RNase A) (setting [3]) it was 4.96; on Ribonuclease A (RNase A) (setting [4]), 5.00. For the same molecule, at Ribonuclease A (RNase A), the “binding strength to RNase A in words” value is on record as “relatively strong binder”.

Take `Nc1ccn([C@@H]2O[C@H](CO)[C@@H](OP(=O)(O)O)[C@H]2O)c(=O)n1` [3′-CMP, cytidine 3′-monophosphate free acid]: the pKd was 4.12 on RNase, 3.89 at Ribonuclease A (RNase A) (setting [2]), 4.12 at Ribonuclease A (RNase A) (setting [3]) and 3.89 at Ribonuclease A (RNase A) (setting [4]). On Ribonuclease A (RNase A), the “binding strength to RNase A in words” value is “relatively weak binder”.

What is called pKd is the Kd on a negative log10 scale, so that one unit is a factor of ten.
